Assay results published in US12612372B2, “Oxopyridazinyl-phenyl-carbonohydrazonoyl dicyanide compound and use thereof” (KOREA INSTITUTE OF SCIENCE AND TECHNOLOGY, priority 2020, dated 2026).
Read-outs that look alike come from different tables or passages of the source.

Legend:
tau protein = target: T1, tau protein (Homo sapiens, UniProt P10636); test: Tau-BiFC cell model, Forskolin-induced tau protein aggregation; assay type: cell-based; conditions: for Tau BiFC in cells Response (%, @10 μM): 10 μM compound, BiFC fluorescence relative to Forskolin-only group (100% tau protein-aggregated state)
T1 construct: fused on or other part: Split Venus fragments VN173 and VC155, each fused to one copy of tau as BiFC reporter halves
Method: (§1) In order to select novel tau protein aggregation—inhibiting substances, tau-BiFC cell model, in which formation of tau oligomers in living cells is easily observed, was used. Tau-BiFC cells were aliquoted into a 384-well plate. […] After 48 hours, nuclei in the cells were stained using Hoechst (at a treatment concentration of 2 μg/mL), and BiFC fluorescence intensity was automatically measured using Operetta (PerkinElmer) to count stained nuclei in each well out of the entire well plate. […] Furthermore, the degree of cytotoxicity induced by the newly synthesized compound was also measured based on the 100% cell viability of the group treated only with Forskolin as a reference, and the cytotoxicity value of each compound was calculated using the equation “(number of stained nuclei in group treated with compound/number of stained nuclei in group treated with Forskolin)×100”.
(§2) After 48 hours, tau protein aggregation reaction and degrees of cytotoxicity were analyzed by observing images of the cells. IC50 and toxicity of the compounds were analyzed by nonlinear regression analysis of Prism software (Graph Pad).

Tau-BiFC cells = test: Cell viability (stained nuclei count) in tau-BiFC cells
Method: as §1, §2

CYP2D6 = target: T2, CYP2D6 (Homo sapiens, UniProt P10635); test: CYP coenzyme activity in human liver microsomes, CYP2D6; assay type: in vitro ADME; conditions: 10 μM compound, human liver microsomes 0.25 mg/mL, substrate dextromethorphan, 15 minutes
T2 construct: human liver microsomes (0.25 mg/mL); from tissue; host or cells: human liver microsomes
Method: (§3) Specifically, human liver microsomes (0.25 mg/mL), a 0.1 M phosphate buffer solution (pH 7.4), a substrate drug cocktail of five types of drug metabolism enzymes (50 μM phenacetin, 10 μM diclofenac, 100 μM S-mephenytoin, 5 μM dextromethorphan, and 2.5 μM midazolam), and the compound at a concentration of 0 μM or 10 μM were mixed and pre-cultured at 37° C. for 5 minutes, and then further cultured at 37° C. for 15 minutes together with an NADPH generation system solution added thereto. Thereafter, the reaction was terminated by adding an acetonitrile solution containing an internal standard material (terfenadine) and centrifuged for 5 minutes (14,000 rpm, 4° C.), and then a supernatant was injected into an LC-MS/MS system for simultaneous analysis of metabolites of the substrate drugs to thereby evaluate the inhibitory effects on drug metabolism.
(§4) Metabolites of each CYP coenzyme indicator drug generated through the reaction were analyzed using the Shimadzu Nexera XR system and TSQ Vantage (Thermo). In an HPLC column, Kinetex C18 (2.1 mm×100 mm, 2.6 μm particle size; Phenomenex, USA) was used, and mobile phases were (A) distilled water containing 0.1% formic acid and (B) acetonitrile containing 0.1% formic acid, and a gradient program shown in Table 3 was applied thereto.
(§5) The generated metabolites were quantified using a multiple reaction monitoring (MRM) quantification mode, and Xcalibur (version 1.6.1) was used for data analysis. In order to express the inhibitory effects of the novel compounds prepared according to the examples of the present invention on CYP coenzyme activity, CYP coenzyme activities (%) with respect to the control group not treated with any compound are shown in Table 4 below.

CYP2C19 = target: T3, CYP2C19 (Homo sapiens, UniProt P33261); test: CYP coenzyme activity in human liver microsomes, CYP2C19; assay type: in vitro ADME; conditions: 10 μM compound, human liver microsomes 0.25 mg/mL, substrate S-mephenytoin, 15 minutes
T3 construct: human liver microsomes (0.25 mg/mL); from tissue; host or cells: human liver microsomes
Method: as §3, §4, §5

[1] = Liver microsome stability, mouse; assay type: in vitro ADME; conditions: mouse liver microsomes 0.25 mg/mL, 1 μM compound, 37° C., 30 minutes, NADPH
Method: (§6) The stability of liver microsomes due to the compounds prepared according to Examples 1 to 14 was confirmed. Specifically, four types of liver microsomes (human, dog, rat, and mouse, each 0.25 mg/mL), a 0.1 M phosphate buffer solution (pH 7.4), and each of the compounds at a concentration of 1 μM were mixed and pre-cultured at 37° C. for 5 minutes and further cultured at 37° C. for 30 minutes together with an NADPH generation system solution added thereto. Thereafter, the reaction was terminated by adding an acetonitrile solution containing an internal standard material (chlorpropamide) and centrifuged for 5 minutes (14,000 rpm, 4° C.), and then a supernatant was injected into an LC-MS/MS system for analysis of substrate drugs to thereby evaluate metabolic stability due to 8 types of compounds.
(§7) The amount of the substrate remaining after the reaction was analyzed using the Shimadzu Nexera XR system and TSQ Vantage (Thermo). In an HPLC column, Kinetex XB-C18 (2.1 mm×100 mm, particle size of 2.6 μm; Phenomenex, USA) was used, and mobile phases were (A) distilled water containing 0.1% formic acid and (B) acetonitrile containing 0.1% formic acid. Analyst software (version 1.6.3) and Xcalibur (version 1.6.1) were used for data analysis.

[2] = Liver microsome stability, rat; assay type: in vitro ADME; conditions: rat liver microsomes 0.25 mg/mL, 1 μM compound, 37° C., 30 minutes, NADPH
Method: as §6, §7

[3] = Liver microsome stability, human; assay type: in vitro ADME; conditions: human liver microsomes 0.25 mg/mL, 1 μM compound, 37° C., 30 minutes, NADPH
Method: as §6, §7

CYP2C9 = target: T4, CYP2C9 (Homo sapiens, UniProt P11712); test: CYP coenzyme activity in human liver microsomes, CYP2C9; assay type: in vitro ADME; conditions: 10 μM compound, human liver microsomes 0.25 mg/mL, substrate diclofenac, 15 minutes
T4 construct: human liver microsomes (0.25 mg/mL); from tissue; host or cells: human liver microsomes
Method: as §3, §4, §5

CYP1A2 = target: T5, CYP1A2 (Homo sapiens, UniProt P05177); test: CYP coenzyme activity in human liver microsomes, CYP1A2; assay type: in vitro ADME; conditions: 10 μM compound, human liver microsomes 0.25 mg/mL, substrate phenacetin, 15 minutes
T5 construct: human liver microsomes (0.25 mg/mL); from tissue; host or cells: human liver microsomes
T5 sequence (P05177 1-516): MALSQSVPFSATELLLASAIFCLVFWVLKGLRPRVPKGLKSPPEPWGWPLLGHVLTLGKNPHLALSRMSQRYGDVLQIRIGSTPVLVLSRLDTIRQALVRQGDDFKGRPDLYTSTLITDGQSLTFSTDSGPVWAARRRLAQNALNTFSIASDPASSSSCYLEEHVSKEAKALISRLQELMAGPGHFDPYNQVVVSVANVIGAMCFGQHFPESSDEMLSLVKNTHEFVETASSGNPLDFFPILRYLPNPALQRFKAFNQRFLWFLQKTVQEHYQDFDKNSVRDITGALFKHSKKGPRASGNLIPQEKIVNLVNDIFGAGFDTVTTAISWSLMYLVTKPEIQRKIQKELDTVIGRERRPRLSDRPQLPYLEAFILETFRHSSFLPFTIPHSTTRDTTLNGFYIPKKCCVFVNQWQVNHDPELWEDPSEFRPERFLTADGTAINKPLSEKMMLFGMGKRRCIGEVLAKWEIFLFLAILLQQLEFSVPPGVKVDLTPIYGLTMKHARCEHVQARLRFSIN
Method: as §3, §4, §5

CYP3A4 = target: T6, CYP3A4 (Homo sapiens, UniProt P08684); test: CYP coenzyme activity in human liver microsomes, CYP3A4; assay type: in vitro ADME; conditions: 10 μM compound, human liver microsomes 0.25 mg/mL, substrate midazolam, 15 minutes
T6 construct: human liver microsomes (0.25 mg/mL); from tissue; host or cells: human liver microsomes
Method: as §3, §4, §5

[4] = Liver microsome stability, dog; assay type: in vitro ADME; conditions: dog liver microsomes 0.25 mg/mL, 1 μM compound, 37° C., 30 minutes, NADPH
Method: as §6, §7

[5] = 10 μM compound, stained nuclei relative to Forskolin-only group (100%), 48 hours
[6] = tau-BiFC cells, Forskolin 30 μM, 48 hours, read-out: Tau BiFC in cells IC50

T1 sequence (P10636 2-441 isoform P10636-8 limits assumed): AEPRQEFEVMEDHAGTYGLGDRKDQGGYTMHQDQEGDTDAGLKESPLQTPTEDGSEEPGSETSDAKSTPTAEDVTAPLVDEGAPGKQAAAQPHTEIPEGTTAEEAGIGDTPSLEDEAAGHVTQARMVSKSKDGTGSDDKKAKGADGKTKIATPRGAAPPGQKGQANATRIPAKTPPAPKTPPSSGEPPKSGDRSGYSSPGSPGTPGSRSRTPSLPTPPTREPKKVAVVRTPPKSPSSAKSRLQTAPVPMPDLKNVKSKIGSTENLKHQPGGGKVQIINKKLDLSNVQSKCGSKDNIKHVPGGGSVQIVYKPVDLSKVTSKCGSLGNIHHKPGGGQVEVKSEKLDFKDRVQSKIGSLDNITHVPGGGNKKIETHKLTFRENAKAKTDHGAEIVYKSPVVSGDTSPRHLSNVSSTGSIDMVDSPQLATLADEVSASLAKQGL
T2 sequence (P10635 whole entry): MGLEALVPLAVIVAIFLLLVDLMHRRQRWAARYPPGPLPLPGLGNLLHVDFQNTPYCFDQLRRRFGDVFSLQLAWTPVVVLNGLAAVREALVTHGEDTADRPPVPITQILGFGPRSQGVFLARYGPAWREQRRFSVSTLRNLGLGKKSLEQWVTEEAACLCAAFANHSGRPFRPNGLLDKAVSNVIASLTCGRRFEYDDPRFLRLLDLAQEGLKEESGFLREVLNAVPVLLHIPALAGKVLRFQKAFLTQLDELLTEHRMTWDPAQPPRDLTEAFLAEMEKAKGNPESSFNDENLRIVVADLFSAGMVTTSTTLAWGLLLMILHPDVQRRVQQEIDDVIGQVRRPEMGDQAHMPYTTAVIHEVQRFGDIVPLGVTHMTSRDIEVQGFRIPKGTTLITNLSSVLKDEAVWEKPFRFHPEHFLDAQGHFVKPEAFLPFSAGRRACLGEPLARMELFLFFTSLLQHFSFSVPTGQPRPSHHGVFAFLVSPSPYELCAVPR
T4 sequence (P11712 whole entry): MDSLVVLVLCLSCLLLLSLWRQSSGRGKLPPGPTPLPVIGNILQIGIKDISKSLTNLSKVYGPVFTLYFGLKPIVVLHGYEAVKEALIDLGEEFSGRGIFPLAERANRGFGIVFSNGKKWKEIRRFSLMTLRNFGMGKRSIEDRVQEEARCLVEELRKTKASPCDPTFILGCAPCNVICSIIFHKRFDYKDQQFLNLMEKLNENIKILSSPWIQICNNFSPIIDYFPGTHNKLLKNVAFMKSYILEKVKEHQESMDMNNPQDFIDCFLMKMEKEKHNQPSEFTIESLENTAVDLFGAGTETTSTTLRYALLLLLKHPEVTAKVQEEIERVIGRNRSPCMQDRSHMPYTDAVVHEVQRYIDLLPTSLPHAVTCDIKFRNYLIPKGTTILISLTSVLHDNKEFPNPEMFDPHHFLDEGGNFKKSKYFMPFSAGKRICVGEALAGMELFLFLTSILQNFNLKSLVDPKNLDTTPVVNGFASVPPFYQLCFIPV
T6 sequence (P08684 whole entry): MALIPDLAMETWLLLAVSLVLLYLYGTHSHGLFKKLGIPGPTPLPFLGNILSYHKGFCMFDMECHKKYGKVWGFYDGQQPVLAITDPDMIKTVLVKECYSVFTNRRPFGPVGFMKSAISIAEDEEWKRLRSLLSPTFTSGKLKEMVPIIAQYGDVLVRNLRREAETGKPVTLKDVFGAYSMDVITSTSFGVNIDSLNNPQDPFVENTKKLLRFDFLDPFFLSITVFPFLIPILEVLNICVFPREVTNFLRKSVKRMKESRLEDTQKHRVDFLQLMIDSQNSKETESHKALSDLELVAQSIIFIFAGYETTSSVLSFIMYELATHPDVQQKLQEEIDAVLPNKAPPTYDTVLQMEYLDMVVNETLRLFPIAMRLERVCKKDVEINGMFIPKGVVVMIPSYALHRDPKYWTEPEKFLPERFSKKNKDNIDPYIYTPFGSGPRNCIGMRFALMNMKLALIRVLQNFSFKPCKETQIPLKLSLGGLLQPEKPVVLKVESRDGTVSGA
T3 sequence (P33261 whole entry): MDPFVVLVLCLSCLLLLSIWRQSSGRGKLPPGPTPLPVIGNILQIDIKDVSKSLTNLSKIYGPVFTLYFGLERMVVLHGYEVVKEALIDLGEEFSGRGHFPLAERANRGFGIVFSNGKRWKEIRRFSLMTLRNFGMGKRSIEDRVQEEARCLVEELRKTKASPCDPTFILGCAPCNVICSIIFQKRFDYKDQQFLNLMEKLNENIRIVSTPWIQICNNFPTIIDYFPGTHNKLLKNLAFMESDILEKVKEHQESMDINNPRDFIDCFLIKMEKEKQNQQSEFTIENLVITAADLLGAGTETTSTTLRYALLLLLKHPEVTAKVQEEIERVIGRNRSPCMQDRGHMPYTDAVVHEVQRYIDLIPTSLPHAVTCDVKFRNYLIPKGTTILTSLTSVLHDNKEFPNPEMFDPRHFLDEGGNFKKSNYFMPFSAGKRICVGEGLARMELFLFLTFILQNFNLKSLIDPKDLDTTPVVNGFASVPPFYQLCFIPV

SMILES	Tau BiFC in cells Response (%, @10 μM) (tau protein; 48 hours) [%]	Cell viability (%, @10 μM) (Tau-BiFC cells; [5]) [%]	IC50 (tau protein; [6]) [µM]	further results
COc1ccc(N2N=C(c3ccc(NN=C(C#N)C#N)cc3)C(C)CC2=O)cc1 (stereo not shown) [Example 7, (4-(1-(4-methoxyphenyl)-4-methyl-6-oxo-1,4,5,6-tetrahydropyridazin-3-yl)phenyl)carbonohydrazonoyl dicyanide]	2.3	89.3		IC50 (tau protein): 0.94 µM
Cc1cnn(-c2ccc(NN=C(C#N)C#N)cc2)c(=O)c1 [Comparative Example 7, reference compound]	19.4	102.3	4.5	
N#CC(C#N)=NNc1ccc(-n2ncccc2=O)cc1 [Comparative Example 5, reference compound]	35.1	124.2	> 10	
CC1CC(=O)N(CC(F)(F)F)N=C1c1ccc(NN=C(C#N)C#N)cc1 (stereo not shown) [Example 4, (4-(4-methyl-6-oxo-1-(2,2,2-trifluoroethyl)-1,4,5,6-tetrahydropyridazin-3-yl)phenyl)carbonohydrazonoyl dicyanide]	0	98.7		CYP2D6 activity (%) with respect to control group not treated with any compound (CYP2D6): 62.1%; IC50 (tau protein): 0.45 µM; CYP2C19 activity (%) with respect to control group not treated with any compound (CYP2C19): 45.5%; Mouse (%) amount remaining after the reaction [1]: 89%; Rat (%) amount remaining after the reaction [2]: 96.8%; Human (%) amount remaining after the reaction [3]: 98.2%; CYP2C9 activity (%) with respect to control group not treated with any compound (CYP2C9): 55.6%; CYP1A2 activity (%) with respect to control group not treated with any compound (CYP1A2): 74.8%; CYP3A4 activity (%) with respect to control group not treated with any compound (CYP3A4): 74.2%; Dog (%) amount remaining after the reaction [4]: 95.6%
N#CC(C#N)=NNc1ccc(-c2ccc(=O)[nH]n2)cc1 [Comparative Example 1, reference compound]	10.1	130.3		IC50 (tau protein; Tau BiFC in cells IC50, tau-BiFC cells, Forskolin 30 μM, 48 hours): 16.8 µM
C[C@@H]1CC(=O)NN=C1c1ccc(NN=C(C#N)C#N)cc1 [Levosimendan, reference compound]	9.58	73.21	1.44	
Cc1ccnn(-c2ccc(NN=C(C#N)C#N)cc2)c1=O [Comparative Example 8, reference compound]	0		2.5	Cell viability (%, @10 μM) (Tau-BiFC cells; 48 h, 10 μM): 110.1%
Cc1cc(-c2ccc(NN=C(C#N)C#N)cc2)n[nH]c1=O [Comparative Example 3, reference compound]	37.11	113.1	> 10	
CC(C)N1N=C(c2ccc(NN=C(C#N)C#N)cc2)CCC1=O [Example 1, (4-(1-isopropyl-6-oxo-1,4,5,6-tetrahydropyridazin-3-yl)phenyl)carbonohydrazonoyl dicyanide]		110.1		CYP2D6 activity (%) with respect to control group not treated with any compound (CYP2D6): 74.6%; CYP2C19 activity (%) with respect to control group not treated with any compound (CYP2C19): 70.8%; Mouse (%) amount remaining after the reaction [1]: >100%; Rat (%) amount remaining after the reaction [2]: >100%; Human (%) amount remaining after the reaction [3]: 6.4%; CYP2C9 activity (%) with respect to control group not treated with any compound (CYP2C9): 70.4%; CYP1A2 activity (%) with respect to control group not treated with any compound (CYP1A2): 79%; CYP3A4 activity (%) with respect to control group not treated with any compound (CYP3A4): 81.7%; Dog (%) amount remaining after the reaction [4]: >100%
Cc1cc(=O)[nH]nc1-c1ccc(NN=C(C#N)C#N)cc1 [Comparative Example 2, reference compound]	1.8	128.6	3.5	
CC1CC(=O)NN=C1c1ccc(NN=C(C#N)C#N)cc1 (stereo not shown) [Comparative Example 4, reference compound]	45.7	120.3	> 10	
Cc1ccc(=O)n(-c2ccc(NN=C(C#N)C#N)cc2)n1 [Comparative Example 6, reference compound]	46.7	114.9	> 10	
